Each structure is given as a SMILES string. Structures can show the parent of a compound that is named as a salt.

Chain of human recombinant KAT-II (Q8N5Z0 30-425): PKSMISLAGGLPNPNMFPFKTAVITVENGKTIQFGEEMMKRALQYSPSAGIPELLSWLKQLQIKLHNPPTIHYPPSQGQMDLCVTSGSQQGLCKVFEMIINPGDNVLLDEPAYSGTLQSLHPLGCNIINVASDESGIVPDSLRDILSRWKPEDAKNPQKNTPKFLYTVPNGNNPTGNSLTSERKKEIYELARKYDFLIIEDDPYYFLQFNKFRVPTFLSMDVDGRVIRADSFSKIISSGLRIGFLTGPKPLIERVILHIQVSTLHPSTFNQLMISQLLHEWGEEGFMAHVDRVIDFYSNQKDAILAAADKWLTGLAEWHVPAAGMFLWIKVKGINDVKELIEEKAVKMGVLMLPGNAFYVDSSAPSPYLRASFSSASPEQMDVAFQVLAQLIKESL

For this experiment, the target named is human recombinant KAT-II (Homo sapiens (Human), UniProt Q8N5Z0). Nature of the experiment: KAT-II inhibitory test. It is filed as biochemical. The settings on record: 3.0 μmol/L kynurenine, 37° C., 1 hr, pH 8.0; kynurenic acid quantified by HPLC. In a few lines:
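E. coli-expressed His/MBP-tagged human KAT-II (2.0 ng/μL) incubated with 3.0 μmol/L kynurenine and 10 μmol/L pyridoxal phosphate in Tris-acetate pH 8.0, 1 hr at 37 °C. Reaction stopped with TCA. Kynurenic acid quantified by reversed-phase HPLC with fluorescence detection (ex 354/em 460 nm), duplicate at each concentration.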
As for `CN(C)CCn1c(C(F)(F)F)nc2sc(N3CCC[C@@H]3C(=O)NCc3ccccc3)nc2c1=O` [Example 372, (R)-N-benzyl-1-{6-[2-(N′,N′-dimethylamino)ethyl]-7-oxo-5-trifluoromethyl-6,7-dihydro[1,3]thiazolo[5,4-d]pyrimidin-2-yl}pyrrolidine-2-carboxamide], the IC50 was determined as 39 nM. Regarding `CN(CCn1c(C(F)(F)F)nc2sc(N3CCC[C@@H]3C(=O)NCc3ccccc3)nc2c1=O)CC(F)(F)F` [Example 373, (R)-N-benzyl-1-[6-{2-[N′-methyl-N′-(2,2,2-trifluoroethyl)amino]ethyl}-7-oxo-5-trifluoromethyl-6,7-dihydro[1,3]thiazolo[5,4-d]pyrimidin-2-yl]pyrrolidine-2-carboxamide hydrochloride], the IC50 came to 8 nM.

On to `C[C@H](c1nc2sc(N3CCC[C@@H]3C(=O)NCc3ccccc3)nc2c(=O)n1C)N(C)C` [Example 376, (R)-N-benzyl-1-{5-[(R)-1-(N′,N′-dimethylamino)ethyl]-6-methyl-7-oxo-6,7-dihydro[1,3]thiazolo[5,4-d]pyrimidin-2-yl}pyrrolidine-2-carboxamide], for which the IC50 was 14 nM. With `O=C(NCc1ccccc1)[C@H]1CCCN1c1nc2c(=O)n(CCO)c(C(F)(F)F)nc2s1` [Example 396, (R)-N-benzyl-1-[6-(2-hydroxyethyl)-7-oxo-5-trifluoromethyl-6,7-dihydro[1,3]thiazolo[5,4-d]pyrimidin-2-yl]pyrrolidine-2-carboxamide], the IC50 amounted to 76 nM. The result for `CN(C)CCOc1nc2sc(N3CCC[C@@H]3C(=O)NCc3ccccc3)nc2c(=O)n1C` [Example 406, (R)-N-benzyl-1-{5-[2-(N′,N′-dimethylamino)ethoxy]-6-methyl-7-oxo-6,7-dihydro[1,3]thiazolo[5,4-d]pyrimidin-2-yl}pyrrolidine-2-carboxamide] reads 370 nM. For `CC(=O)c1nc2sc(N3CCC[C@@H]3C(=O)NCc3ccccc3)nc2c(=O)n1C` [Example 411, (R)-1-(5-acetyl-6-methyl-7-oxo-6,7-dihydro[1,3]thiazolo[5,4-d]pyrimidin-2-yl)-N-benzylpyrrolidine-2-carboxamide] the value was 15 nM; for `COc1ccc(Cn2c(C(C)(C)F)nc3sc(N4CCC[C@@H]4C(=O)NCc4ccccc4)nc3c2=O)c(OC)c1` [Example 414, (R)-N-benzyl-1-[6-(2,4-dimethoxybenzyl)-5-(2-fluoropropan-2-yl)-7-oxo-6,7-dihydro[1,3]thiazolo[5,4-d]pyrimidin-2-yl]pyrrolidine-2-carboxamide], 43 nM.

On to `CC(C)c1nc2sc(N(C)[C@H](C)C(=O)NCc3ccccc3)nc2c(=O)[nH]1` [Example 486, (R)-N-benzyl-2-{N′-[5-(propan-2-yl)-7-oxo-6,7-dihydro[1,3]thiazolo[5,4-d]pyrimidin-2-yl]-N′-methylamino}propionamide], for which the IC50 was 15 nM. For the compound `O=C(NCc1ccccc1)[C@H]1CCCN1c1nc2c(=O)[nH]c(-c3ccccc3F)nc2s1` [Example 489, (R)-N-benzyl-1-[5-(2-fluorophenyl)-7-oxo-6,7-dihydro[1,3]thiazolo[5,4-d]pyrimidin-2-yl]pyrrolidine-2-carboxamide], the IC50 stood at 6 nM. For `C[C@@H](NC(=O)[C@H]1CCCN1c1nc2c(=O)[nH]c(-c3ccc(F)cc3F)nc2s1)c1ccccc1` [Example 499, (R)-1-[5-(2,4-difluorophenyl)-7-oxo-6,7-dihydro[1,3]thiazolo[5,4-d]pyrimidin-2-yl]N-((R)-1-phenylethyl)pyrrolidine-2-carboxamide] the value was 7.1 nM; for `Cc1ccc(-c2nc3sc(N4CCC[C@@H]4C(=O)NCc4ccccc4)nc3c(=O)[nH]2)s1` [Example 500, (R)-N-benzyl-1-[5-(5-methylthiophen-2-yl)-7-oxo-6,7-dihydro[1,3]thiazolo[5,4-d]pyrimidin-2-yl]pyrrolidine-2-carboxamide], 41 nM; for `Cc1cc(F)c(-c2nc3sc(N4CCC[C@@H]4C(=O)NCc4ccccc4)nc3c(=O)[nH]2)s1` [Example 501, (R)-N-benzyl-1-[5-(3-fluoro-5-methylthiophen-2-yl)-7-oxo-6,7-dihydro[1,3]thiazolo[5,4-d]pyrimidin-2-yl]pyrrolidine-2-carboxamide], 17 nM.

On to `O=C(NCc1ccccc1)[C@H]1CCCN1c1nc2c(=O)[nH]c(C(F)(F)c3ccccc3)nc2s1` [Example 524, (R)-N-benzyl-1-{5-[difluoro(phenyl)methyl]-7-oxo-6,7-dihydro[1,3]thiazolo[5,4-d]pyrimidin-2-yl}pyrrolidine-2-carboxamide], for which the IC50 was found to be 4 nM. For `O=C(NCc1ccccc1)[C@H]1CCCN1c1nc2c(=O)[nH]c(C(F)(F)CCS(=O)(=O)c3ccccc3)nc2s1` [Example 530, (R)-N-benzyl-1-[5-(3-benzenesulfonyl-1,1-difluoropropyl)-7-oxo-6,7-dihydro-[1,3]thiazolo[5,4-d]pyrimidin-2-yl]pyrrolidine-2-carboxamide] the value was 19 nM; for `C[C@H](C(=O)NCc1ccccc1)N(C)c1nc2c(=O)[nH]c(-c3ccccc3F)nc2s1` [Example 532, (R)-N-benzyl-2-{N′-[5-(2-fluorophenyl)-7-oxo-6,7-dihydro[1,3]thiazolo[5,4-d]pyrimidin-2-yl]-N′-methylamino}propionamide], 17 nM.

`O=C(NCc1ccccc1)[C@H]1CCCN1c1nc2c(=O)[nH]c(C(F)(F)F)nc2s1` [Example 536, (R)-N-benzyl-1-(7-oxo-5-trifluoromethyl-6,7-dihydro[1,3]thiazolo[5,4-d]pyrimidin-2-yl)pyrrolidine-2-carboxamide]: the IC50 worked out at 6.9 nM. The result for `O=C(NCc1ccccc1)[C@H]1CCCN1c1nc2c(=O)[nH]c(C(F)F)nc2s1` [Example 539, (R)-N-benzyl-1-(5-difluoromethyl-7-oxo-6,7-dihydro[1,3]thiazolo[5,4-d]pyrimidin-2-yl)pyrrolidine-2-carboxamide] reads 22 nM; that for `O=C(NCc1ccccc1)[C@H]1CCCN1c1nc2c(=O)[nH]c(N3CCC[C@H]3C(F)(F)F)nc2s1` [Example 553, (R)-N-benzyl-1-{7-oxo-5-[(S)-2-(trifluoromethyl)pyrrolidin-1-yl]-6,7-dihydro[1,3]thiazolo[5,4-d]pyrimidin-2-yl}pyrrolidine-2-carboxamide], 43 nM; that for `O=C(NCc1ccccc1)[C@H]1CCCN1c1nc2c(=O)[nH]c(OCC(F)(F)F)nc2s1` [Example 555, (R)-N-benzyl-1-[7-oxo-5-(2,2,2-trifluoroethoxy)-6,7-dihydro[1,3]thiazolo[5,4-d]pyrimidin-2-yl]pyrrolidine-2-carboxamide], 1100 nM.

On to `COCc1nc2sc(N3CCC[C@@H]3C(=O)NCc3ccccc3)nc2c(=O)n1C1CCOCC1` [Example 565, (R)-N-benzyl-1-[5-methoxymethyl-7-oxo-6-(tetrahydro-2H-pyran-4-yl)-6,7-dihydro[1,3]thiazolo[5,4-d]pyrimidin-2-yl]pyrrolidine-2-carboxamide], for which the IC50 was determined as 10 nM. Turning to `Cn1c(C2CC2)nc2sc(N3CC(F)(F)C[C@@H]3C(=O)NCc3ccccc3)nc2c1=O` [Example 572, (R)-N-benzyl-1-(5-cyclopropyl-6-methyl-7-oxo-6,7-dihydro[1,3]thiazolo[5,4-d]pyrimidin-2-yl)-4,4-difluoropyrrolidine-2-carboxamide], the IC50 came out at 86 nM. For `Cn1c(C2(C#N)CC2)nc2sc(N3CCC[C@@H]3C(=O)NCc3ccccc3)nc2c1=O` [Example 573, (R)-N-benzyl-1-[5-(1-cyanocyclopropyl)-6-methyl-7-oxo-6,7-dihydro[1,3]thiazolo[5,4-d]pyrimidin-2-yl]pyrrolidine-2-carboxamide] the value was 35 nM. The result for `CCc1nc2sc(N3CCC[C@@H]3C(=O)COc3ccccc3)nc2c(=O)n1C` [Example 575, 5-ethyl-6-methyl-2-[(R)-2-(2-phenoxyacetyl)pyrrolidin-1-yl][1,3]thiazolo[5,4-d]pyrimidin-7(6H)-one] reads 19 nM; that for `COC1CN(c2nc3sc(N4CCC[C@@H]4C(=O)COc4ccccc4)nc3c(=O)n2C)C1` [Example 578, 5-(3-methoxyazetidin-1-yl)-6-methyl-2-[(R)-2-(2-phenoxyacetyl)pyrrolidin-1-yl][1,3]thiazolo[5,4-d]pyrimidin-7(6H)-one], 28 nM. For `CCc1nc2sc(N3CCC[C@@H]3C(=O)CNc3ccccc3)nc2c(=O)n1C` [Example 579, 5-ethyl-6-methyl-2-[(R)-2-(2-phenylaminoacetyl)pyrrolidin-1-yl][1,3]thiazolo[5,4-d]pyrimidin-7(6H)-one] the value was 10 nM. For `O=C(NCc1ccccc1)[C@H]1CCCN1c1nc2c(=O)[nH]c(-c3c(F)cccc3F)nc2s1` [Example 583, (R)-N-benzyl-1-[5-(2,6-difluorophenyl)-7-oxo-6,7-dihydro[1,3]thiazolo[5,4-d]pyrimidin-2-yl]pyrrolidine-2-carboxamide], the IC50 came to 9 nM. For `Cc1noc(-c2nc3sc(N4CCC[C@@H]4C(=O)NCc4ccccc4)nc3c(=O)[nH]2)n1` [Example 585, (R)-N-benzyl-1-[5-(3-methyl-[1,2,4]oxadiazol-5-yl)-7-oxo-6,7-dihydro[1,3]thiazolo[5,4-d]pyrimidin-2-yl]pyrrolidine-2-carboxamide] the value was 12 nM; for `CN1CCn2c(nc3sc(N4CCC[C@@H]4C(=O)NCc4ccccc4)nc3c2=O)C1` [Example 590, (R)-N-benzyl-1-(6-methyl-10-oxo-5,7,8,10-tetrahydro-6H-pyrazino[1,2-a][1,3]thiazolo[5,4-d]pyrimidin-2-yl)pyrrolidine-2-carboxamide], 280 nM. The result for `O=C(NCc1ccccc1)[C@H]1CCCN1c1nc2c(=O)n3c(nc2s1)CN(CC(F)F)CC3` [Example 593, (R)-N-benzyl-1-[6-(2,2-difluoroethyl)-10-oxo-5,7,8,10-tetrahydro-6H-pyrazino[1,2-a][1,3]thiazolo[5,4-d]pyrimidin-2-yl]pyrrolidine-2-carboxamide] reads 51 nM.

The values above are taken from US10065972B2, “Bicyclic or tricyclic heterocyclic compound” (MITSUBISHI TANABE PHARMA CORPORATION, priority 2014, dated 2018).
